Data published in patent US20080220100A1, “Fermented panax notoginseng solution with anti-cancer effects and manufacture method thereof” (MICROBIO COMPANY LTD., TAIWAN, priority 2007, published 2008).

Assays:
Hep 3B/T2 cancer cells = assay: SCID mice injected with Hep 3B/T2 cancer cells, fed fermented product for 35 days; format: in vivo; conditions: positive control group
Description: SCID mice with 18 to 22 g body weight were classified into 5 groups and 10 mice per group. […] The tumor size of the SCID mice was measured every 3 to 4 days, and the weight of the heart, liver, spleen, lung, and kidney of the SCID mice was measured when the experiment was finished.

[1] = Anti-oxidation capacity relative to vitamin E; conditions: vitamin E defined to 100; medium with increasing share of black bean powder
From the text: The same procedure carried out in Example 2 was repeated except that the content of the Panax notoginseng medium was changed. The content of the Panax notoginseng medium included 4 types: ¼ Panax notoginseng powder and ¾ black powder, ½ Panax notoginseng powder and 1/2 black powder, ¾ Panax notoginseng powder and ¼ black powder, and all Panax notoginseng powder.

Molecule | Heart weight (Hep 3B/T2 cancer cells) [mg] | Kidney weight (Hep 3B/T2 cancer cells) [mg] | Liver weight (Hep 3B/T2 cancer cells) [mg] | Lung weight (Hep 3B/T2 cancer cells) [mg] | Spleen weight (Hep 3B/T2 cancer cells) [mg] | Tumor weight (Hep 3B/T2 cancer cells) [mg] | anti-oxidation capacity [1]
O=c1[nH]cc(F)c(=O)[nH]1 [5-FU, fluorouracil] | 143.2 ± 14.6 | 328.2 ± 26.2 | 1171.3 ± 103.0 | 215.8 ± 23 | 118.7 ± 35.6 | 376.1 ± 232.9 | –
vitamin E | – | – | – | – | – | – | 100
